Data taken from patent US20250163052A1, “cGAS INHIBITORS AND USES THEREOF” (Cornell University, priority 2022, published 2025).

Experiments:
h-cGAS = h-cGAS (Homo sapiens, UniProt Q8N884); experiment: Cell-free human cGAS enzyme inhibition assay (ATP depletion, Kinase-Glo Max); assay type: biochemical; conditions: human cGAS
m-cGAS = m-cGAS (Mus musculus, UniProt Q8C6L5); experiment: Cell-free mouse cGAS enzyme inhibition assay (ATP depletion, Kinase-Glo Max); assay type: biochemical; conditions: mouse cGAS
[1] = Protein binding in mouse brain homogenates; assay type: in vitro ADME
MEF2C target genes = experiment: Single-nuclei RNA-seq of excitatory and inhibitory neurons, overlap with MEF2C target genes; assay type: in vivo, mouse; conditions: P301S mice, 150 mg/kg diet for three months; snRNA-seq
Experimental: Hippocampi isolation from frozen mouse hippocampi was adapted from a previous study with modifications (Grubman et al., 2019; Habib et al., 2017). All procedures were done on ice or at 4° C. In brief, post-mortem brain tissue was placed in 1500 μl of Sigma nuclei PURE lysis buffer (Sigma, NUC201-1KT) and homogenized with a Dounce tissue grinder (Sigma, D8938-1SET) with 20 strokes with pestle A and 15 strokes with pestle B. The homogenized tissue was filtered through a 35-μm cell strainer, then centrifuged at 600 g for 5 min at 4° C. and washed three times with 1 ml of PBS containing 1% BSA, 20 mM DTT and 0.2 U μl^−1 recombinant RNase inhibitor. […] The FACS-sorted suspension of DAPI-stained nuclei were counted and diluted to a concentration of 1000 nuclei per microliter in PBS containing 0.04% BSA. […]
Gene counts were obtained by aligning reads to the mm10 genome with Cell Ranger software (v.3.1.0) (10× Genomics). To account for unspliced nuclear transcripts, reads mapping to pre-mRNA were counted. […] We further removed genes expressed in no more than 2 cells, cells with unique gene counts over 4,000 or less than 200, and cells with high fraction of mitochondrial reads (>5%). […] To identify gene ontology and pathways enriched in the differentially expressed genes (DEGs), DEGS were analysed using (MSigDB) gene annotation database (Liberzon et al., 2011; Subramanian et al., 2005). […]

[2] = Metabolic stability in human liver microsomes
[3] = Metabolic stability in mouse liver microsomes

Sequence of m-cGAS (Q8C6L5 whole entry): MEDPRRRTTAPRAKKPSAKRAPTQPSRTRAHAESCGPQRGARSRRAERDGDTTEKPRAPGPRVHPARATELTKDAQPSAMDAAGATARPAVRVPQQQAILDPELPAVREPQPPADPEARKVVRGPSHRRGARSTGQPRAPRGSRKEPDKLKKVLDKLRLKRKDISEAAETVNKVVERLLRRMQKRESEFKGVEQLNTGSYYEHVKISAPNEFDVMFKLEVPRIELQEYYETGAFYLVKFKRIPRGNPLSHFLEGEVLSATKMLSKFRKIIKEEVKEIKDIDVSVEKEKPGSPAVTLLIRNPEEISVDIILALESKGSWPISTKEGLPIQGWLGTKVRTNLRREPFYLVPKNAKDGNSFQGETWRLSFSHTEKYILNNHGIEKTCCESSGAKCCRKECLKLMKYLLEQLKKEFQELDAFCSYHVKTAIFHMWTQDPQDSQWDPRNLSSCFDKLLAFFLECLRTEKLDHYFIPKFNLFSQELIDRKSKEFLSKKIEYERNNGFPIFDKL
Sequence of h-cGAS (Q8N884 whole entry): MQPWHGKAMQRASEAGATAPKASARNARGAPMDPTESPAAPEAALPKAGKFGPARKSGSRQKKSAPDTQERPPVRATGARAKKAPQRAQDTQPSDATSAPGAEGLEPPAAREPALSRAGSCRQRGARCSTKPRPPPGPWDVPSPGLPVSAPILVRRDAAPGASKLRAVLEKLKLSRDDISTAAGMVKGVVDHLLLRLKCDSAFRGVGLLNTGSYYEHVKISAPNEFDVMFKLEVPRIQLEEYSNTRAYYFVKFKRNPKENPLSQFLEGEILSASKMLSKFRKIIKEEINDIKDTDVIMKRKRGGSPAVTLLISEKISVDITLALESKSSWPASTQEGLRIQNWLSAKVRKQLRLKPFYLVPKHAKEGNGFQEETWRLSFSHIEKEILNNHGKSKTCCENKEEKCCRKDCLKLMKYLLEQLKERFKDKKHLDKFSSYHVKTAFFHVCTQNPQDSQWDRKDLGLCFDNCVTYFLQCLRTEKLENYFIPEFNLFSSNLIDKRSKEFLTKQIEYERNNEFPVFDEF

## Cn1c2c(c3ccc(Cl)c(F)c31)CN(C(=O)CO)CC2 [TDI-6570, reference compound]
h-cGAS
  IC50: 0.138 µM
m-cGAS
  IC50: 0.0128 µM
[1]
  % Recovery: 89.39%
  LogK: 2.38
[1]; 6 hr
  % Remaining at 6 hr: 94.51%
MEF2C target genes
  Enrichment of MEF2C target genes in DEGs of excitatory and inhibitory neurons: strong enrichment of MEF2C target genes
[2]; human liver microsomes, 60 min, no co-factor (no NADPH)
  Remaining (NCF = 60 min): 120.6%
[2]; human liver microsomes, 60 min with NADPH
  Remaining (T = 60 min): 11.3%
[2]; human liver microsomes, scaled from CLint(mic)
  CLint(liver): 68.2 mL/min/kg
[2]; human, liver microsomes
  CLint(mic): 75.8 µL/min/mg
  T½: 18.3 min
[3]; mouse liver microsomes, 60 min, no co-factor (no NADPH)
  Remaining (NCF = 60 min): 100.0%
[3]; mouse liver microsomes, 60 min with NADPH
  Remaining (T = 60 min): 0.0%
[3]; mouse liver microsomes, scaled from CLint(mic)
  CLint(liver): 997.5 mL/min/kg
[3]; mouse, liver microsomes
  CLint(mic): 251.9 µL/min/mg
  T½: 5.5 min
